Calls of active or inactive are those of the source. The calls are words filed in the database; no cut-off is given here. Non-standard residues stand in square brackets, D forms with d. Residues, ends and D or L forms follow the SMILES beside them. *: point of attachment. Dolaproine = CO[C@@H]([C@@H]1CCCN1)[C@@H](C)C(=O)O; Abu(3S-N3) = C[C@H](N=[N+]=[N-])[C@H](N)C(=O)O; Dil = CC[C@H](C)[C@H](NC)[C@@H](CC(=O)O)OC; Abu(3S-NH2) = C[C@H](N)[C@H](N)C(=O)O; Dap(N3) = [N-]=[N+]=NC[C@H](N)C(=O)O; NMe2Val = CC(C)[C@@H](C(=O)*)N(C)C; Aha = [N-]=[N+]=NCC[C@H](N)C(=O)O; Pra = C#CC[C@H](N)C(=O)O; Dab = NCC[C@H](N)C(=O)O; Dap = NC[C@H](N)C(=O)O; NHtBu = CC(C)(C)N*; OtBu = CC(C)(C)O*
How the values were obtained:
[1] = tested on: HCC1954; experiment: Growth inhibition of human HCC1954 cells after 4 to 6 days by Presto blue assay; format: functional
[2] = tested on: PC-3; experiment: Growth inhibition of human PC3 cells after 4 to 6 days by Presto blue assay; format: functional
[3] = species: Bos taurus; experiment: Inhibition of bovine brain tubulin polymerization at 10 uM after 60 mins by spectrophotometric method

Row | SMILES | GI50 [1] [nM] | GI50 [2] [nM] | inhibition [3]
1 | CC[C@H](C)[C@@H]([C@@H](CC(=O)N1CCC[C@H]1[C@H](OC)[C@@H](C)C(=O)NCCc1ccccn1)OC)N(C)C(=O)[C@@H](NC(=O)[C@H](C(C)C)N(C)C)[C@@H](C)O | 21 | – | –
2 | CC[C@H](C)[C@@H]([C@@H](CC(=O)N1CCC[C@H]1[C@H](OC)[C@@H](C)C(=O)N[C@@H](Cc1ccccc1)c1nnn[nH]1)OC)N(C)C(=O)[C@@H](NC(=O)[C@H](C(C)C)N(C)C)[C@H](C)N=[N+]=[N-] | 27 | 41 | Active
3 | CC[C@H](C)[C@@H]([C@@H](CC(=O)N1CCC[C@H]1[C@H](OC)[C@@H](C)C(=O)NCCc1ccccc1Cl)OC)N(C)C(=O)[C@@H](NC(=O)[C@H](C(C)C)N(C)C)[C@H](C)N=[N+]=[N-] | 13 | 34 | –
4 | CC[C@H](C)[C@@H]([C@@H](CC(=O)N1CCC[C@H]1[C@H](OC)[C@@H](C)C(=O)NCCc1ccccn1)OC)N(C)C(=O)[C@@H](NC(=O)[C@H](C(C)C)N(C)C)[C@H](C)N=[N+]=[N-] | 3.7 | 5.1 | –
5 | CC[C@H](C)[C@@H]([C@@H](CC(=O)N1CCC[C@H]1[C@H](OC)[C@@H](C)C(=O)NCCc1ccc(Cl)cc1)OC)N(C)C(=O)[C@@H](NC(=O)[C@H](C(C)C)N(C)C)[C@H](C)N=[N+]=[N-] | 33 | 40 | –
6 | CC[C@H](C)[C@@H]([C@@H](CC(=O)N1CCC[C@H]1[C@H](OC)[C@@H](C)C(=O)N[C@@H](Cc1ccccc1)c1nccs1)OC)N(C)C(=O)[C@@H](NC(=O)[C@H](C(C)C)N(C)C)[C@H](C)N=[N+]=[N-] | 18 | 33 | Active
7 | CC[C@H](C)[C@@H]([C@@H](CC(=O)N1CCC[C@H]1[C@H](OC)[C@@H](C)C(=O)NCCc1ccccn1)OC)N(C)C(=O)[C@H](CO)NC(=O)[C@H](C(C)C)N(C)C | > 1000 | > 1000 | –
8 | CC[C@H](C)[C@@H]([C@@H](CC(=O)N1CCC[C@H]1[C@H](OC)[C@@H](C)C(=O)N[C@@H](Cc1ccccc1)C(=O)OC)OC)N(C)C(=O)[C@H](CS)NC(=O)[C@H](C(C)C)N(C)C (NMe2Val-C[Dil][Dolaproine]F-OMe) | 3.2 | 3.8 | –
9 | CC[C@H](C)[C@@H]([C@@H](CC(=O)N1CCC[C@H]1[C@H](OC)[C@@H](C)C(=O)N[C@@H](Cc1ccccc1)C(=O)OC)OC)N(C)C(=O)[C@H](CC(=O)O)NC(=O)[C@H](C(C)C)N(C)C (NMe2Val-D[Dil][Dolaproine]F-OMe) | > 1000 | 610 | –
10 | CC[C@H](C)[C@@H]([C@@H](CC(=O)N1CCC[C@H]1[C@H](OC)[C@@H](C)C(=O)N[C@@H](Cc1ccccc1)C(=O)OC)OC)N(C)C(=O)[C@H](CCCCN)NC(=O)[C@H](C(C)C)N(C)C (NMe2Val-K[Dil][Dolaproine]F-OMe) | 340 | – | –
11 | CC[C@H](C)[C@@H]([C@@H](CC(=O)N1CCC[C@H]1[C@H](OC)[C@@H](C)C(=O)N[C@@H](Cc1ccccc1)C(=O)O)OC)N(C)C(=O)[C@H](CO)NC(=O)[C@H](C(C)C)N(C)C (NMe2Val-S[Dil][Dolaproine]F-OH) | 4.4 | 19 | –
12 | CC[C@H](C)[C@@H]([C@@H](CC(=O)N1CCC[C@H]1[C@H](OC)[C@@H](C)C(=O)N[C@@H](Cc1ccccc1)C(=O)OC)OC)N(C)C(=O)[C@H](CO)NC(=O)[C@H](C(C)C)N(C)C (NMe2Val-S[Dil][Dolaproine]F-OMe) | 0.34 | 1.2 | –
13 | CC[C@H](C)[C@@H]([C@@H](CC(=O)N1CCC[C@H]1[C@H](OC)[C@@H](C)C(=O)N[C@@H](Cc1ccccc1)C(=O)OC)OC)N(C)C(=O)[C@H](CCN=[N+]=[N-])NC(=O)[C@H](C(C)C)N(C)C (NMe2Val-[Aha][Dil][Dolaproine]F-OMe) | 0.43 | 1.1 | –
14 | CC[C@H](C)[C@@H]([C@@H](CC(=O)N1CCC[C@H]1[C@H](OC)[C@@H](C)C(=O)N[C@@H](Cc1ccccc1)C(=O)OC)OC)N(C)C(=O)[C@H](CCN)NC(=O)[C@H](C(C)C)N(C)C (NMe2Val-[Dab][Dil][Dolaproine]F-OMe) | > 1000 | > 1000 | –
15 | CC[C@H](C)[C@@H]([C@@H](CC(=O)N1CCC[C@H]1[C@H](OC)[C@@H](C)C(=O)N[C@@H](Cc1ccccc1)C(=O)OC)OC)N(C)C(=O)[C@H](CN)NC(=O)[C@H](C(C)C)N(C)C (NMe2Val-[Dap][Dil][Dolaproine]F-OMe) | 3.5 | 20 | –
16 | C#CC[C@H](NC(=O)[C@H](C(C)C)N(C)C)C(=O)N(C)[C@@H]([C@@H](C)CC)[C@@H](CC(=O)N1CCC[C@H]1[C@H](OC)[C@@H](C)C(=O)N[C@@H](Cc1ccccc1)C(=O)OC)OC (NMe2Val-[Pra][Dil][Dolaproine]F-OMe) | 0.16 | 0.36 | –

More lines, now with the values ahead:

Row | GI50 [1] [nM] | GI50 [2] [nM] | inhibition [3] | SMILES
17 | 34 | 50 | – | CC[C@H](C)[C@@H]([C@@H](CC(=O)N1CCC[C@H]1[C@H](OC)[C@@H](C)C(=O)N[C@H](C)[C@@H](O)c1ccccc1)OC)N(C)C(=O)[C@@H](NC(=O)[C@H](C(C)C)N(C)C)[C@H](C)N=[N+]=[N-]
18 | 3.1 | 4.7 | – | CC[C@H](C)[C@@H]([C@@H](CC(=O)N1CCC[C@H]1[C@H](OC)[C@@H](C)C(=O)NCCc1ccccc1)OC)N(C)C(=O)[C@@H](NC(=O)[C@H](C(C)C)N(C)C)[C@H](C)N=[N+]=[N-]
19 | 3.5 | 5 | – | CC[C@H](C)[C@@H]([C@@H](CC(=O)N1CCC[C@H]1[C@H](OC)[C@@H](C)C(=O)N[C@@H](Cc1ccccc1)C(=O)O)OC)N(C)C(=O)[C@@H](NC(=O)[C@H](C(C)C)N(C)C)[C@@H](C)O (NMe2Val-T[Dil][Dolaproine]F-OH)
20 | 0.16 | 0.38 | – | CC[C@H](C)[C@@H]([C@@H](CC(=O)N1CCC[C@H]1[C@H](OC)[C@@H](C)C(=O)N[C@@H](Cc1ccccc1)C(=O)OC)OC)N(C)C(=O)[C@@H](NC(=O)[C@H](C(C)C)N(C)C)[C@@H](C)O (NMe2Val-T[Dil][Dolaproine]F-OMe)
21 | 0.4 | 1.7 | – | CC[C@H](C)[C@@H]([C@@H](CC(=O)N1CCC[C@H]1[C@H](OC)[C@@H](C)C(=O)N[C@@H](Cc1ccccc1)C(N)=O)OC)N(C)C(=O)[C@@H](NC(=O)[C@H](C(C)C)N(C)C)[C@H](C)N=[N+]=[N-] (NMe2Val-[Abu(3S-N3)][Dil][Dolaproine]F-NH2)
22 | 0.4 | 1.2 | – | CC[C@H](C)[C@@H]([C@@H](CC(=O)N1CCC[C@H]1[C@H](OC)[C@@H](C)C(=O)N[C@@H](Cc1ccccc1)C(=O)NC(C)(C)C)OC)N(C)C(=O)[C@@H](NC(=O)[C@H](C(C)C)N(C)C)[C@H](C)N=[N+]=[N-] (NMe2Val-[Abu(3S-N3)][Dil][Dolaproine]F-NHtBu)
23 | > 1000 | > 1000 | – | CC[C@H](C)[C@@H]([C@@H](CC(=O)N1CCC[C@H]1[C@H](OC)[C@@H](C)C(=O)N[C@@H](Cc1ccccc1)C(=O)O)OC)N(C)C(=O)[C@@H](NC(=O)[C@H](C(C)C)N(C)C)[C@H](C)N=[N+]=[N-] (NMe2Val-[Abu(3S-N3)][Dil][Dolaproine]F-OH)
24 | 0.041 | 0.093 | – | CC[C@H](C)[C@@H]([C@@H](CC(=O)N1CCC[C@H]1[C@H](OC)[C@@H](C)C(=O)N[C@@H](Cc1ccccc1)C(=O)OC)OC)N(C)C(=O)[C@@H](NC(=O)[C@H](C(C)C)N(C)C)[C@H](C)N=[N+]=[N-] (NMe2Val-[Abu(3S-N3)][Dil][Dolaproine]F-OMe)
25 | 0.089 | 0.045 | – | CC[C@H](C)[C@@H]([C@@H](CC(=O)N1CCC[C@H]1[C@H](OC)[C@@H](C)C(=O)N[C@@H](Cc1ccccc1)C(=O)OC(C)(C)C)OC)N(C)C(=O)[C@@H](NC(=O)[C@H](C(C)C)N(C)C)[C@H](C)N=[N+]=[N-] (NMe2Val-[Abu(3S-N3)][Dil][Dolaproine]F-OtBu)
26 | 2.5 | 11 | – | CC[C@H](C)[C@@H]([C@@H](CC(=O)N1CCC[C@H]1[C@H](OC)[C@@H](C)C(=O)N[C@@H](Cc1ccccc1)C(=O)O)OC)N(C)C(=O)[C@@H](NC(=O)[C@H](C(C)C)N(C)C)[C@H](C)N (NMe2Val-[Abu(3S-NH2)][Dil][Dolaproine]F-OH)
27 | 0.076 | 0.54 | – | CC[C@H](C)[C@@H]([C@@H](CC(=O)N1CCC[C@H]1[C@H](OC)[C@@H](C)C(=O)N[C@@H](Cc1ccccc1)C(=O)OC)OC)N(C)C(=O)[C@@H](NC(=O)[C@H](C(C)C)N(C)C)[C@H](C)N (NMe2Val-[Abu(3S-NH2)][Dil][Dolaproine]F-OMe)
28 | 0.036 | 0.11 | – | CC[C@H](C)[C@@H]([C@@H](CC(=O)N1CCC[C@H]1[C@H](OC)[C@@H](C)C(=O)N[C@@H](Cc1ccccc1)C(=O)OC)OC)N(C)C(=O)[C@H](CN=[N+]=[N-])NC(=O)[C@H](C(C)C)N(C)C (NMe2Val-[Dap(N3)][Dil][Dolaproine]F-OMe)

From ChEMBL document CHEMBL4130431, “Synthesis and Evaluation of Dolastatin 10 Analogues Containing Heteroatoms on the Amino Acid Side Chains” (2017)
